Source: patent publication US20250177566A1, “USE OF CHEMICAL EPIGENETIC MODIFIERS TO MODULATE GENE EXPRESSION” (The University of North Carolina at Chapel Hill, priority 2022, published 2025)
Like-named read-outs stand apart in the source and are kept apart here.

Tests used:
TRE3G-GFP reporter gene [1] = test: TRE3G-GFP reporter gene activation in HCT116, dCas9 + MS2-FKBP*x2 (F36V) system, flow cytometry; format: cell-based, human; parameters: fold change, GFP: reference not given here; settings: for fold change, GFP (Treated vs Non-Treated): FIG. 1E, 48 hours; for fold change, GFP: 48 hrs
CXCR4 [2] = test: CXCR4 mRNA activation in HCT116 stably expressing dCas9 and MS2-FKBP*x2, qRT-PCR; format: cell-based, human; settings: for fold change, CXCR4 mRNA (CEM Treated vs Non-Treated): 48 hrs; for fold change, CXCR4 mRNA (CXCR4 gRNA vs NT gRNA): FIG. 3B; for fold change, CXCR4 mRNA (CXCR4 gRNA vs NT gRNA) / fold change, CXCR4 mRNA (washout vs AP1867 competition) / fold change, CXCR4 mRNA (Compare to 0 h): CEM207 25 nM; for fold change, CXCR4 mRNA (washout vs AP1867 competition): FIG. 3D; for fold change, CXCR4 mRNA (Compare to 0 h): FIG. 7A
Summary of the method: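 HCT116 cells stably expressing dCas9 and MS2-FKBP*x2 with CXCR4 gRNA were treated with CEMs (screen at 5 nM; 1–50 nM range). CXCR4 mRNA measured by one-step qRT-PCR after 48 h, or at 12–96 h in time course. Reversibility tested by washout after 24 h, optionally with 20 μM AP1867.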

CXCR4 [3] = test: CXCR4 mRNA activation in HCT116 stably expressing dCas9 and MS2-FKBPx2 (WT-FKBP), qRT-PCR; format: cell-based, human; settings: FIG. 6, WT FKBP system, 48 hrs
TRE3G-GFP reporter gene [4] = settings: WT FKBP (MS2-FKBPx2), 48 hrs
Procedure: HCT116 cells were transfected with TRE3G-GFP, dCas9, MS2-FKPB*x2, and TRE3G gRNA or NT gRNA. After 48 hrs of 10 nM SLF*-CEMa treatment, flow cytometry was performed and mean fluorescent value was collected. […] TRE3G-GFP, dCas9, MS2-FKBP*2, TRE3G gRNA or NT gRNA were transfected into HCT116 cells. The media was changed to media with 5 nM CEM207 together with 0 nM, 50 nM, 500 nM or 5000 nM of AP1867, respectively. After 48 hrs chemical exposure, flow cytometry was performed and the mean fluorescent value was measured in each group of cells. […] FIGS. 5D and 5E are dose curves of CEMa molecules activating the GFP reporter gene in HCT116 cells using WT FKBP and dCas9 as DNA binding module. HCT116 cells were transfected with dCas9, MS2-FKBPx2, TRE3G-GFP constructs, along with TRE3G gRNA or NT gRNA. Cells were treated with different concentrations of CEMa molecules for 48 hrs before flow cytometry was conducted. […] Error bars represent the standard deviation.
To better understand the activity of SLF*-CEMa in the WT FKBP-based GFP reporter assay, a similar dose-response assay was conducted in HCT116 cells transfected with dCas9 and MS2-FKBPx2 (FIGS. 1D and 1E).
Flow cytometry. All flow cytometry experiments were performed with Attune Nxt as previously described. […] Significance was determined by Student's t-test.

## CC[C@H](C(=O)N1CCCC[C@H]1C(=O)O[C@H](CCc1ccc(OC)c(OC)c1)c1cccc(OCC(=O)NCCOCCOCCNC(=O)C[C@@H]2N=C(c3ccc(Cl)cc3)c3c(sc(C)c3C)-n3c(C)nnc32)c1)c1cc(OC)c(OC)c(OC)c1 [CEM207, (R)-1-(3-((14-((S)-4-(4-Chlorophenyl)-2,3,9-trimethyl-6H-thieno[3,2-f][1,2,4]triazolo[4,3-a][1,4]diazepin-6-yl)-2,13-dioxo-6,9-dioxa-3,12-diazatetradecyl)oxy)phenyl)-3-(3,4-dimethoxyphenyl) propyl(S)-1-((S)-2-(3,4,5-trimethoxyphenyl)butanoyl) piperidine-2-carboxylate]
TRE3G-GFP reporter gene [1]; TRE3G gRNA, 0.25 nM
  fold change, GFP (Treated vs Non-Treated): 2.0 fold
TRE3G-GFP reporter gene [1]; TRE3G gRNA, 0.5 nM
  fold change, GFP (Treated vs Non-Treated): 9.1 fold
TRE3G-GFP reporter gene [1]; TRE3G gRNA, 0.75 nM
  fold change, GFP (Treated vs Non-Treated): 11.5 fold
TRE3G-GFP reporter gene [1]; TRE3G gRNA, 1 nM
  fold change, GFP (Treated vs Non-Treated): 12.8 fold
TRE3G-GFP reporter gene [1]; TRE3G gRNA, 2.5 nM
  fold change, GFP (Treated vs Non-Treated): 20.6 fold
TRE3G-GFP reporter gene [1]; TRE3G gRNA, 5 nM
  fold change, GFP (Treated vs Non-Treated): 24.0 fold
TRE3G-GFP reporter gene [1]; TRE3G gRNA, 7.5 nM
  fold change, GFP (Treated vs Non-Treated): 22.5 fold
TRE3G-GFP reporter gene [1]; TRE3G gRNA, 10 nM
  fold change, GFP (Treated vs Non-Treated): 21.4 fold
TRE3G-GFP reporter gene [1]; TRE3G gRNA, 25 nM
  fold change, GFP (Treated vs Non-Treated): 21.5 fold
TRE3G-GFP reporter gene [1]; TRE3G gRNA, 50 nM
  fold change, GFP (Treated vs Non-Treated): 22.3 fold
TRE3G-GFP reporter gene [1]; TRE3G gRNA, 75 nM
  fold change, GFP (Treated vs Non-Treated): 22.5 fold
TRE3G-GFP reporter gene [1]; TRE3G gRNA, 100 nM
  fold change, GFP (Treated vs Non-Treated): 21.9 fold
TRE3G-GFP reporter gene [1]; FIG. 5A, NT gRNA, 10 nM
  fold change, GFP: 0.3 fold
TRE3G-GFP reporter gene [1]; FIG. 5A, TRE3G gRNA, 10 nM
  fold change, GFP: 12.0 fold
TRE3G-GFP reporter gene [1]; FIG. 5C, NT gRNA, 0.25 nM
  fold change, GFP: 1.1 fold
TRE3G-GFP reporter gene [1]; FIG. 5C, NT gRNA, 0.5 nM
  fold change, GFP: 1.1 fold
TRE3G-GFP reporter gene [1]; FIG. 5C, NT gRNA, 0.75 nM
  fold change, GFP: 1.1 fold
TRE3G-GFP reporter gene [1]; FIG. 5C, NT gRNA, 1 nM
  fold change, GFP: 1.1 fold
TRE3G-GFP reporter gene [1]; FIG. 5C, NT gRNA, 2.5 nM
  fold change, GFP: 1.2 fold
TRE3G-GFP reporter gene [1]; FIG. 5C, NT gRNA, 5 nM
  fold change, GFP: 1.5 fold
TRE3G-GFP reporter gene [1]; FIG. 5C, NT gRNA, 7.5 nM
  fold change, GFP: 1.5 fold
TRE3G-GFP reporter gene [1]; FIG. 5C, NT gRNA, 10 nM
  fold change, GFP: 1.4 fold
TRE3G-GFP reporter gene [1]; FIG. 5C, NT gRNA, 25 nM
  fold change, GFP: 1.6 fold
TRE3G-GFP reporter gene [1]; FIG. 5C, NT gRNA, 50 nM
  fold change, GFP: 1.6 fold
TRE3G-GFP reporter gene [1]; FIG. 5C, NT gRNA, 75 nM
  fold change, GFP: 1.5 fold
TRE3G-GFP reporter gene [1]; FIG. 5C, NT gRNA, 100 nM
  fold change, GFP: 1.5 fold
CXCR4 [2]; FIG. 2D, CXCR4 gRNA, 0.5 nM
  fold change, CXCR4 mRNA (CEM Treated vs Non-Treated): 2.5 fold
CXCR4 [2]; FIG. 2D, CXCR4 gRNA, 1 nM
  fold change, CXCR4 mRNA (CEM Treated vs Non-Treated): 7.4 fold
CXCR4 [2]; FIG. 2D, CXCR4 gRNA, 5 nM
  fold change, CXCR4 mRNA (CEM Treated vs Non-Treated): 28.2 fold
CXCR4 [2]; FIG. 2D, CXCR4 gRNA, 25 nM
  fold change, CXCR4 mRNA (CEM Treated vs Non-Treated): 48.2 fold
CXCR4 [2]; FIG. 2D, CXCR4 gRNA, 50 nM
  fold change, CXCR4 mRNA (CEM Treated vs Non-Treated): 34.6 fold
CXCR4 [2]; FIG. 2D, NT gRNA, 0.5 nM
  fold change, CXCR4 mRNA (CEM Treated vs Non-Treated): 1.17 fold
CXCR4 [2]; FIG. 2D, NT gRNA, 1 nM
  fold change, CXCR4 mRNA (CEM Treated vs Non-Treated): 0.77 fold
CXCR4 [2]; FIG. 2D, NT gRNA, 5 nM
  fold change, CXCR4 mRNA (CEM Treated vs Non-Treated): 1.47 fold
CXCR4 [2]; FIG. 2D, NT gRNA, 25 nM
  fold change, CXCR4 mRNA (CEM Treated vs Non-Treated): 2.21 fold
CXCR4 [2]; FIG. 2D, NT gRNA, 50 nM
  fold change, CXCR4 mRNA (CEM Treated vs Non-Treated): 1.88 fold
CXCR4 [2]; FIG. 2D, concentrations above 5 nM
  CXCR4 activation compared to dCas9-p300: higher CXCR4 activation
CXCR4 [2]; 24 h
  fold change, CXCR4 mRNA (CXCR4 gRNA vs NT gRNA): 18.6 fold
CXCR4 [2]; 48 h
  fold change, CXCR4 mRNA (CXCR4 gRNA vs NT gRNA): 13.1 fold
  fold change, CXCR4 mRNA (washout vs AP1867 competition): 1.2 fold
CXCR4 [2]; 48 h AP1867 (washout with 20 μM AP1867 after 24 hrs)
  fold change, CXCR4 mRNA (CXCR4 gRNA vs NT gRNA): 8.3 fold
CXCR4 [2]; 48 h wash (media washout after 24 hrs)
  fold change, CXCR4 mRNA (CXCR4 gRNA vs NT gRNA): 10.5 fold
CXCR4 [2]; 72 h
  fold change, CXCR4 mRNA (CXCR4 gRNA vs NT gRNA): 6.8 fold
  fold change, CXCR4 mRNA (washout vs AP1867 competition): 2.4 fold
CXCR4 [2]; 72 h AP1867 (washout with 20 μM AP1867 after 24 hrs)
  fold change, CXCR4 mRNA (CXCR4 gRNA vs NT gRNA): 4.2 fold
CXCR4 [2]; 72 h wash (media washout after 24 hrs)
  fold change, CXCR4 mRNA (CXCR4 gRNA vs NT gRNA): 5.4 fold
CXCR4 [2]; 96 h AP1867 (washout with 20 μM AP1867 after 24 hrs)
  fold change, CXCR4 mRNA (CXCR4 gRNA vs NT gRNA): 2.1 fold
CXCR4 [2]; 96 h wash (media washout after 24 hrs)
  fold change, CXCR4 mRNA (CXCR4 gRNA vs NT gRNA): 4.3 fold
CXCR4 [2]; 96 h
  fold change, CXCR4 mRNA (washout vs AP1867 competition): 0.57 fold
CXCR4 [2]; NT gRNA, 12 h
  fold change, CXCR4 mRNA (Compare to 0 h): 0.1 fold
CXCR4 [2]; NT gRNA, 24 h
  fold change, CXCR4 mRNA (Compare to 0 h): 0.6 fold
CXCR4 [2]; NT gRNA, 48 h
  fold change, CXCR4 mRNA (Compare to 0 h): 0.7 fold
CXCR4 [2]; NT gRNA, 48 h AP1867 (washout with 20 μM AP1867 after 24 hrs)
  fold change, CXCR4 mRNA (Compare to 0 h): 0.7 fold
CXCR4 [2]; NT gRNA, 48 h wash (media washout after 24 hrs)
  fold change, CXCR4 mRNA (Compare to 0 h): 0.8 fold
CXCR4 [2]; NT gRNA, 72 h
  fold change, CXCR4 mRNA (Compare to 0 h): 0.6 fold
CXCR4 [2]; NT gRNA, 72 h AP1867 (washout with 20 μM AP1867 after 24 hrs)
  fold change, CXCR4 mRNA (Compare to 0 h): 0.3 fold
CXCR4 [2]; NT gRNA, 72 h wash (media washout after 24 hrs)
  fold change, CXCR4 mRNA (Compare to 0 h): 0.4 fold
CXCR4 [2]; NT gRNA, 96 h
  fold change, CXCR4 mRNA (Compare to 0 h): 0.5 fold
CXCR4 [2]; NT gRNA, 96 h AP1867 (washout with 20 μM AP1867 after 24 hrs)
  fold change, CXCR4 mRNA (Compare to 0 h): 0.6 fold
CXCR4 [2]; NT gRNA, 96 h wash (media washout after 24 hrs)
  fold change, CXCR4 mRNA (Compare to 0 h): 0.6 fold
CXCR4 [2]; FIGS. 3C and 3D, CEM203 50 nM or CEM207 25 nM for 24 hours, then media exchange, all time points
  CXCR4 mRNA expression after CEM washout in comparison to cells continuously treated: significantly lowered CXCR4 mRNA expression
CXCR4 [2]; time course 12, 24, 48, 72, 96 hrs, CXCR4 gRNA
  time point of highest (peak) CXCR4 mRNA activation: 24 h
CXCR4 [3]; 50 nM
  fold change, CXCR4 mRNA (CXCR4 gRNA vs NT gRNA): 4.2 fold
CXCR4 [3]; 200 nM
  fold change, CXCR4 mRNA (CXCR4 gRNA vs NT gRNA): 9.1 fold
TRE3G-GFP reporter gene [4]; FIG. 5D, 10 nM
  fold change, GFP (Treated vs Non-Treated): 1.9 fold
TRE3G-GFP reporter gene [4]; FIG. 5D, 25 nM
  fold change, GFP (Treated vs Non-Treated): 6.5 fold
TRE3G-GFP reporter gene [4]; FIG. 5D, 50 nM
  fold change, GFP (Treated vs Non-Treated): 17.4 fold
TRE3G-GFP reporter gene [4]; FIG. 5D, 100 nM
  fold change, GFP (Treated vs Non-Treated): 20.8 fold
TRE3G-GFP reporter gene [4]; FIG. 5D, 200 nM
  fold change, GFP (Treated vs Non-Treated): 24.0 fold
TRE3G-GFP reporter gene [4]; FIG. 5D, 400 nM
  fold change, GFP (Treated vs Non-Treated): 27.2 fold
TRE3G-GFP reporter gene [4]; FIG. 5E, 10 nM
  fold change, GFP (Treated vs Non-Treated): 1.1 fold
TRE3G-GFP reporter gene [4]; FIG. 5E, 25 nM
  fold change, GFP (Treated vs Non-Treated): 1.1 fold
TRE3G-GFP reporter gene [4]; FIG. 5E, 50 nM
  fold change, GFP (Treated vs Non-Treated): 1.0 fold
TRE3G-GFP reporter gene [4]; FIG. 5E, 100 nM
  fold change, GFP (Treated vs Non-Treated): 1.1 fold
TRE3G-GFP reporter gene [4]; FIG. 5E, 200 nM
  fold change, GFP (Treated vs Non-Treated): 1.2 fold
TRE3G-GFP reporter gene [4]; FIG. 5E, 400 nM
  fold change, GFP (Treated vs Non-Treated): 1.3 fold
